Assay [1] relates to IL-1β secretion in BMDM cells (NLRP3 inflammasome). In words: ELISA of IL-1β secretion in LPS/nigericin-treated BMDM cells. It counts as cell-based. Conditions: Mus musculus. The procedure:
When L929 cells reach the logarithmic phase, collect the cell supernatant. Filter the supernatant using a 0.22 μm filter and store it at −20 °C for future use. The 7-week-old C57BL/6 mice were selected as the source of primary bone marrow macrophages. The mice were euthanized using the cervical dislocation method. The ends of the femurs were cut, and the bone marrow was flushed into a 15 mL centrifuge tube using a 5 mL syringe. Once all the bone marrow was collected, an appropriate amount of red blood cell lysis buffer was added to the centrifuge tube. The mixture was incubated for 3–5 min, with repeated pipetting to thoroughly lyse the red blood cells. The cells were then centrifuged and collected. Add 30–40% L929 cell supernatant or M-CSF stimulatory factor to the culture dish. Culture the cells in a cell incubator at 37 °C with 5% CO2. Observe the cell condition daily, and once most cells have adhered to the surface, proceed with subsequent experiments.
Inoculate 1.0 × 10^5 BMDMs cells per well into a 96 well plate and culture overnight. Stimulate the cells with lipopolysaccharide (LPS) at a concentration of 0.2 μg/mL for 3 h, then add different concentrations of the test compounds and incubate for 30 min. Finally, add Nigericin at a concentration of 10 μM to continue the induction for 30 min. Collect the cell supernatant and measure the IL-1β secretion level in the supernatant using an ELISA kit, following the instructions provided, and calculate the IC50 value based on the relevant calculations. To ensure the accuracy and reliability of the experimental results, all experiments were repeated three times, with each experiment performed independently.
In general terms: ELISA stands for enzyme-linked immunosorbent assay.

Assay [2] deals with IL-1β secretion in THP-1 cells (NLRP3 inflammasome). Briefly: Inhibition of IL-1β secretion in THP-1 cells. Type of assay: cell-based. As to conditions: Homo sapiens, three independent experiments. The method, then: Through SAR analysis, we identified compound F14 as the target compound for further investigation. To further validate its activity, the half-inhibitory concentration (IC50) of compound F14 for IL-1β release was determined in the BMDM model. […] To more comprehensively assess the potential of compound F14, we further evaluated its inhibition of IL-1β in THP-1 cells.
Figure 3 F14 inhibits the secretion of IL-1β. (A) Detection of F14 inhibition of IL-1 β secretion in BMDM cells; (B) Detection of F14 inhibition of IL-1 β secretion in THP-1 cells. IC50 calculation and dose-response curve fitting were performed using GraphPad Prism (8.0) software. All data were obtained from three independent experiments.

In the next assay the test system is THP-1 cells. Briefly: LDH release assay. Type of assay: cell-based. Conditions: NLRP3 inflammasome activation by LPS/Nigericin. The source says: Pyroptosis is a form of programmed cell death, typically triggered by the activation of inflammasomes within the cell. It is characterized by the rupture of the cell membrane, releasing cellular contents (such as Lactate Dehydrogenase, LDH), which enhances the inflammatory response. Unlike apoptosis, pyroptosis is initiated through the activation of inflammasomes, involving distinct molecular mechanisms, and is often accompanied by cell swelling and rupture. In contrast, apoptosis is triggered by the activation of Caspase-3, leading to systemic degradation within the cell while maintaining the integrity of the cell membrane. The cell undergoes controlled self-degradation without provoking an immune response. Inhibiting pyroptosis is crucial for alleviating inflammation and promoting tissue repair. To investigate the effect of compound F14 on pyroptosis, we employed flow cytometry and lactate dehydrogenase (LDH) release assays for systematic analysis. Flow cytometry was used to assess the impact of F14 on pyroptosis under inflammatory conditions.
Count the THP-1 cells and inoculate them into a 96-well plate. Add 50 ng/mL PMA and culture the cells at 37 °C in a 5% CO2 incubator for 24 h. Add LPS-containing medium and stimulate the cells for 3 h to induce an inflammatory response. Add F14 and incubate for 1 h, then add Nigericin and stimulate for 30 min to induce pyroptosis. […]
A general note: LDH in the medium is a marker of cell lysis.

For another assay, the system named is NLRP3 inflammasome. Briefly: NLRP3 inflammasome activation by ATP, MSU and Nigericin in BMDMs (ELISA of IL-1β). Type of assay: cell-based, mouse. Conditions: F14 10 μM; LPS-primed BMDMs stimulated with ATP, MSU or Nigericin. The source says:
The NLRP3 inflammasome can be activated by various stimuli, such as microbial toxins and urate crystals. This process plays a central role in the pathogenesis of many inflammatory diseases. To assess whether F14 exerts a broad-spectrum inhibitory effect on NLRP3 inflammasome activation, we used three different activators—ATP, MSU, and Nigericin to stimulate BMDMs. […] Among the inflammasome family, NLRC4 and AIM2 are also protein complexes involved in the innate immune response, playing key roles in inflammatory regulation during infection and tissue damage. Poly (dA:dT) was used to induce AIM2 activation, while S.typhi was employed to stimulate NLRC4 activation. […].
The LPS concentration was 200 ng/mL to pretreat BMDM cells for 3 h, then F14 (10 μM) was added to treat the cells for 30 min, and then each inducer—Nigericin (10 μM, 0.5 h), ATP (2.5 mM, 0.5 h), MSU (150 μg/mL, 4 h), S.typhi (4 h), and poly-(dA:dT) (0.5 μg/mL, 4 h)—were added for stimulation. (A) F14 has a broad-spectrum inhibitory effect on NLRP3 inflammasome activation. (B) F14 has a specific inhibitory effect on NLRP3 inflammasome activation. Data are presented as the mean ± SEM (n = 3). *** p < 0.001 vs. the model group. NS, not significant.

A word on the inhibition: it is the drop in the measured response relative to a control, in per cent. A word on the IC50: it is the concentration needed to halve the response being measured.

Take `Cc1ccc(C(=O)/C=C/c2cccc(O)c2)c(C)c1` [Compound F14, (E)-1-(2,4-dimethylphenyl)-3-(3-hydroxyphenyl)propyl-2-en-1-one]: the inhibition at 20 µM in assay [1] (20 µM, LPS/nigericin-treated BMDM cells, mean ± S.E.M. (n = 3), read-out: IL-1β Inhibition Rate (%)) was 95.4 ± 2.56%. The IC50 is 0.74 µM in assay [1] (BMDM, LPS/nigericin, three independent experiments, read-out: IL-1β release IC50 in BMDMs) and 0.88 µM in assay [2]. Also, the LDH release result in the assay with THP-1 cells is “decreased in a concentration-dependent manner”. In the assay with NLRP3 inflammasome, the “protein expression levels of mature IL-1β (ELISA)” value is reported as “significantly reduced”.

Source of the values: paper PMC12388496, “Discovery of (E)-1,3-Diphenyl-2-Propen-1-One Derivatives as Potent and Orally Active NLRP3 Inflammasome Inhibitors for Colitis” (Molecules, 2025).
